The target of assay [1] is T1, KRas-mediated phosphorylation of ERK in A549 cells (Homo sapiens, UniProt P01116, G12S).
T1 construct: pERK HTRF read-out
Nature of the assay: Inhibition of KRas-mediated phosphorylation of ERK (HTRF), A549 cells. The assay is classed as cell-based. The conditions noted are these: HTRF pERK, 3 h incubation.

The next assay addresses T2, KRas G12S (Homo sapiens, UniProt P01116, G12S).
T2 construct: Biotinylated KRas (corresponding to amino acids 1-169, produced at Accelegan Inc.); biotin (biotinylated); purchased Accelegan Inc
Nature of the assay: KRas binding assay, TR-FRET displacement of Cy5 labelled tracer. The conditions noted are these: 60-minute incubation at room temperature, 1% DMSO, pH 7.5. Put shortly: (§1)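 KRas aa 1-169, biotinylated; Tb-streptavidin donor; 1% DMSO final. Buffer: HEPES 50 mM (pH 7.5), MgCl2 5 mM, DTT 1 mM, Tween-20 0.005%. 60 min, RT. IC50 from 4-parameter fit of POC.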

The next assay has as its target T3, KRas WT (Homo sapiens, UniProt P01116).
T3 construct: Biotinylated KRas (corresponding to amino acids 1-169, produced at Accelegan Inc.); biotin (biotinylated); purchased Accelegan Inc
Described as above. The conditions noted are these: 60-minute incubation at room temperature, 1% DMSO, pH 7.5. In short, it runs like this: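 Assay buffer was HEPES (50 mM, pH 7.5) with MgCl2 (5 mM), DTT (1 mM) and Tween-20 (0.005%). Biotinylated KRas spanning residues 1-169 met tracer, terbium streptavidin and compound (1% DMSO, final) for 60 minutes at ambient temperature before reading. POC values were fitted for IC50.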

The target in the next assay is T4, KRas G12C (Homo sapiens, UniProt P01116, G12C).
T4 construct: Biotinylated KRas (corresponding to amino acids 1-169, produced at Accelegan Inc.); biotin (biotinylated); purchased Accelegan Inc
The assay is described as above. The conditions noted are these: 60-minute incubation at room temperature, 1% DMSO, pH 7.5. In short, it runs like this: as §1

In assay [2] the target is T5, KRas-mediated phosphorylation of ERK in MKN1 cells (Homo sapiens, UniProt P01116).
T5 construct: pERK HTRF read-out
Nature of the assay: Inhibition of KRas-mediated phosphorylation of ERK (HTRF), MKN1 cells. It is filed as cell-based. The conditions noted are these: MKN1 cells (KRas WT); HTRF pERK; 3 h incubation. As to the method: Inhibition of KRas Phosphorylation of ERK (HTRF) by Exemplary Compounds of Formula (Ia) or (Ib)
Cisbio HTRF Advanced pERK Assay Catalog #64AERPEH • Cells: MKN1, PSN1 • Procedure: • 1. Day 1: Seed 6,000 cells/well −25 μl/well in 384-well white solid bottom plate; RPM1_10% FBS. Incubate overnight at 37 °C/5% CO2. • 2.

Structures are written as SMILES.

T5 sequence (P01116 1-188 isoform P01116-2): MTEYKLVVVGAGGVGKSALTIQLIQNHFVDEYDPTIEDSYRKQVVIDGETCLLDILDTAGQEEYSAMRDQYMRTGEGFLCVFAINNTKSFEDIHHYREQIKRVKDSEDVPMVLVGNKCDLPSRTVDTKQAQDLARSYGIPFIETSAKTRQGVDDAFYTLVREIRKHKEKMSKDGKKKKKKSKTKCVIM
T3 sequence (P01116 1-169 isoform P01116-2): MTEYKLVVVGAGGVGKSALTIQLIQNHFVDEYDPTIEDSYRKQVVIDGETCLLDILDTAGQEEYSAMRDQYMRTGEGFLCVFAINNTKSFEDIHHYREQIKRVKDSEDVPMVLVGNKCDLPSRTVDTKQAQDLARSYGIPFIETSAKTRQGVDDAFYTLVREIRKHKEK
T1 sequence (P01116 1-188 isoform P01116-2 G12S): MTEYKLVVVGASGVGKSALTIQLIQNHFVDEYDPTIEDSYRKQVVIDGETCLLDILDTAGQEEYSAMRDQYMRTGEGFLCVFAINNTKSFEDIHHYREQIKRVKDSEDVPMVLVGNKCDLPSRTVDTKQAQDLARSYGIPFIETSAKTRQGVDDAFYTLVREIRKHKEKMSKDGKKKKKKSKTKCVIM
T2 sequence (P01116 1-169 isoform P01116-2 G12S): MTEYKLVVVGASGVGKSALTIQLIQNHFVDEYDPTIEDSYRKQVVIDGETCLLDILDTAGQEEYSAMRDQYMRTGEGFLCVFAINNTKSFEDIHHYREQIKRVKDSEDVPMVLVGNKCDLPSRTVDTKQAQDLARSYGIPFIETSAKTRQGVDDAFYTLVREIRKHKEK
T4 sequence (P01116 1-169 isoform P01116-2 G12C): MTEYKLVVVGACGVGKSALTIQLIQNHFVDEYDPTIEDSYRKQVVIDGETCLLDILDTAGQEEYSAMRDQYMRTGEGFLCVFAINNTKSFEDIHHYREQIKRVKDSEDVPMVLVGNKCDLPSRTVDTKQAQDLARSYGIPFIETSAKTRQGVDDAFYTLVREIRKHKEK

As to `Cc1ccn(C(=O)C2CCCCCN(c3nc(OC[C@@]45CCCN4C[C@H](F)C5)nc4c(F)c(-c5ccc(F)c6sc(N)c(C#N)c56)c(Cl)cc34)C2)n1` (stereo partly drawn) [Example 173, 2-amino-4-(6-chloro-8-fluoro-2-(((2R,7aS)-2-fluorotetrahydro-1H-pyrrolizin-7a(5H)-yl)methoxy)-4-(3-(3-methyl-1H-pyrazole-1-carbonyl)azocan-1-yl)quinazolin-7-yl)-7-fluorobenzo[b]thiophene-3-carbonitrile], the IC50 is 772 nM in assay [1]; 27 nM at KRas G12S; 31 nM on KRas WT; 29 nM on KRas G12C; 54 nM in assay [2].
The corresponding values for `CCc1c(F)ccc2cc(O)cc(-c3c(F)cc4c(N5CCCC(C(=O)n6ccc(C)n6)CC5)nc(OC[C@@]56CCCN5C[C@H](F)C6)nc4c3F)c12` (stereo partly drawn) [Example 174, (1-(7-(8-ethyl-7-fluoro-3-hydroxynaphthalen-1-yl)-6,8-difluoro-2-(((2R,7aS)-2-fluorotetrahydro-1H-pyrrolizin-7a(5H)-yl)methoxy)quinazolin-4-yl)azepan-4-yl)(3-methyl-1H-pyrazol-1-yl)methanone] are 507 nM, 182 nM, 1120 nM, 1120 nM and 3000 nM.
The corresponding values for `Cc1ccn(C(=O)[C@@H]2[C@@H]3CCN(c4nc(OC[C@@]56CCCN5C[C@H](F)C6)nc5c(F)c(-c6ccc(F)c7sc(N)c(C#N)c67)c(Cl)cc45)C[C@@H]32)n1` [Example 179, 2-amino-4-(6-chloro-8-fluoro-2-(((2R,7aS)-2-fluorotetrahydro-1H-pyrrolizin-7a(5H)-yl)methoxy)-4-((1S,6R)-7-(3-methyl-1H-pyrazole-1-carbonyl)-3-azabicyclo[4.1.0]heptan-3-yl)quinazolin-7-yl)-7-fluorobenzo[b]thiophene-3-carbonitrile] are 167 nM, 42 nM, 26 nM, 64 nM and 110 nM.
On to `Cc1ccn(C(=O)[C@H]2C[C@H]2CNc2nc(OC[C@@]34CCCN3C[C@H](F)C4)nc3c(F)c(-c4ccc(F)c5sc(N)c(C#N)c45)c(Cl)cc23)n1` [Example 182, 2-amino-4-(6-chloro-8-fluoro-2-(((2R,7aS)-2-fluorotetrahydro-1H-pyrrolizin-7a(5H)-yl)methoxy)-4-((((cis)-2-(3-methyl-1H-pyrazole-1-carbonyl)cyclopropyl)methyl)amino)quinazolin-7-yl)-7-fluorobenzo[b]thiophene-3-carbonitrile], for which the IC50 in assay [1] worked out at 179 nM; on KRas G12S, 38 nM; at KRas WT it was 35 nM; on KRas G12C it was 24 nM; in assay [2], 247 nM.
For the compound `Cc1ccn(C(=O)C23CCC(CN(c4nc(OC[C@@]56CCCN5C[C@H](F)C6)nc5c(F)c(-c6ccc(F)c7sc(N)c(C#N)c67)c(Cl)cc45)C2)C3)n1` (stereo partly drawn) [Example 183, 2-amino-4-(6-chloro-8-fluoro-2-(((2R,7aS)-2-fluorotetrahydro-1H-pyrrolizin-7a(5H)-yl)methoxy)-4-(1-(3-methyl-1H-pyrazole-1-carbonyl)-3-azabicyclo[3.2.1]octan-3-yl)quinazolin-7-yl)-7-fluorobenzo[b]thiophene-3-carbonitrile], the IC50 is 143 nM in assay [1]; 3 nM on KRas G12S; 5 nM at KRas WT; 4 nM at KRas G12C; 192 nM in assay [2].
In the same order, the values of `Cc1ccn(C(=O)C23CC(CNc4nc(OC[C@@]56CCCN5C[C@H](F)C6)nc5c(F)c(-c6ccc(F)c7sc(N)c(C#N)c67)c(Cl)cc45)(C2)C3)n1` [Example 184, 2-amino-4-(6-chloro-8-fluoro-2-(((2R,7aS)-2-fluorotetrahydro-1H-pyrrolizin-7a(5H)-yl)methoxy)-4-(((3-(3-methyl-1H-pyrazole-1-carbonyl)bicyclo[1.1.1]pentan-1-yl)methyl)amino)quinazolin-7-yl)-7-fluorobenzo[b]thiophene-3-carbonitrile] are 115 nM, 6 nM, 27 nM, 5 nM and 1500 nM.
The corresponding values for `Cc1ccn(C(=O)[C@H]2CCN(c3nc(OC[C@@]45CCCN4C[C@H](F)C5)nc4c(F)c(-c5ccc(F)c6sc(N)c(C#N)c56)c(Cl)cc34)C[C@H]2C)n1` [Example 185, 2-amino-4-(6-chloro-8-fluoro-2-(((2R,7aS)-2-fluorotetrahydro-1H-pyrrolizin-7a(5H)-yl)methoxy)-4-((cis)-3-methyl-4-(3-methyl-1H-pyrazole-1-carbonyl)piperidin-1-yl)quinazolin-7-yl)-7-fluorobenzo[b]thiophene-3-carbonitrile] are 250 nM, 12 nM, 6 nM, 18 nM and 65 nM.
Turning to `N#Cc1c(N)sc2c(F)ccc(-c3c(Cl)cc4c(N5CCN(S(=O)(=O)n6cnnc6)CC5)nc(OC[C@@]56CCCN5C[C@H](F)C6)nc4c3F)c12` [Example 187, 4-(4-(4-((4H-1,2,4-triazol-4-yl)sulfonyl)piperazin-1-yl)-6-chloro-8-fluoro-2-(((2R,7aS)-2-fluorotetrahydro-1H-pyrrolizin-7a(5H)-yl)methoxy)quinazolin-7-yl)-2-amino-7-fluorobenzo[b]thiophene-3-carbonitrile], the IC50 amounted to 1360 nM in assay [1]; 33 nM on KRas G12S; 11 nM on KRas WT; 40 nM on KRas G12C; 127 nM in assay [2].
In the same order, the values of `CCc1c(F)ccc2cc(O)cc(N3CCc4c(nc(OC[C@@]56CCCN5C[C@H](F)C6)nc4NCCCC(=O)n4ccc(C)n4)C3)c12` [Example 193, 4-((7-(8-ethyl-7-fluoro-3-hydroxynaphthalen-1-yl)-2-(((2R,7aS)-2-fluorotetrahydro-1H-pyrrolizin-7a(5H)-yl)methoxy)-5,6,7,8-tetrahydropyrido[3,4-d]pyrimidin-4-yl)amino)-1-(3-methyl-1H-pyrazol-1-yl) butan-1-one] are 230 nM, 11 nM, 113 nM, 5 nM and 2140 nM.
For `CCc1c(F)ccc2cc(O)cc(N3CCc4c(nc(OC[C@@]56CCCN5C[C@H](F)C6)nc4N(C)CCCC(=O)n4ccc(C)n4)C3)c12` [Example 194, 4-((7-(8-ethyl-7-fluoro-3-hydroxynaphthalen-1-yl)-2-(((2R,7aS)-2-fluorotetrahydro-1H-pyrrolizin-7a(5H)-yl)methoxy)-5,6,7,8-tetrahydropyrido[3,4-d]pyrimidin-4-yl)(methyl)amino)-1-(3-methyl-1H-pyrazol-1-yl) butan-1-one], the IC50 turned out to be 130 nM in assay [1]; 7 nM on KRas G12S; 209 nM at KRas WT; 4 nM at KRas G12C; 766 nM in assay [2].
In the same order, the values of `CCc1c(F)ccc2cc(O)cc(N3CCc4c(nc(OC[C@@]56CCCN5C[C@H](F)C6)nc4N(C)CCC(=O)n4ccc(C)n4)C3)c12` [Example 196, 3-((7-(8-ethyl-7-fluoro-3-hydroxynaphthalen-1-yl)-2-(((2R,7aS)-2-fluorotetrahydro-1H-pyrrolizin-7a(5H)-yl)methoxy)-5,6,7,8-tetrahydropyrido[3,4-d]pyrimidin-4-yl)(methyl)amino)-1-(3-methyl-1H-pyrazol-1-yl) propan-1-one] are > 10000 nM, 45 nM, 55 nM, 40 nM and 2200 nM.
In the same order, the values of `CCc1c(F)ccc2cc(O)cc(N3CCc4c(nc(OC[C@@]56CCCN5C[C@H](F)C6)nc4N4CCC(C(=O)n5ccc(C)n5)C4)C3)c12` (stereo partly drawn) [Example 197, (1-(7-(8-ethyl-7-fluoro-3-hydroxynaphthalen-1-yl)-2-(((2R,7aS)-2-fluorotetrahydro-1H-pyrrolizin-7a(5H)-yl)methoxy)-5,6,7,8-tetrahydropyrido[3,4-d]pyrimidin-4-yl)pyrrolidin-3-yl)(3-methyl-1H-pyrazol-1-yl)methanone] are 164 nM, 28 nM, 176 nM, 21 nM and 4950 nM.
Consider `CON(C)C(=O)CCCN(C)c1nc(OC[C@@]23CCCN2C[C@H](F)C3)nc2c(F)c(-c3ccc(F)c4sc(N)c(C#N)c34)c(Cl)cc12` [Example 233, 4-((7-(2-amino-3-cyano-7-fluorobenzo[b]thiophen-4-yl)-6-chloro-8-fluoro-2-(((2R,7aS)-2-fluorotetrahydro-1H-pyrrolizin-7a(5H)-yl)methoxy)quinazolin-4-yl)(methyl)amino)-N-methoxy-N-methylbutanamide], for which the IC50 in assay [1] turned out to be 278 nM; on KRas G12S, 8 nM; at KRas WT, 11 nM; at KRas G12C, 6 nM; in assay [2], 83 nM.
